Values of other authors in patent US20100215746A1, “PREVENTION OF CISPLATIN INDUCED DEAFNESS” (THE REGENTS OF THE UNIVERSITY OF MICHIGAN, priority 2002, published 2010).

Legend:
hearing = settings: human, in vivo
[1] = tested on: neuropathic and ototoxic effects of cisplatin; settings: co-administration with cisplatin

Row | Compound | reported incidence of cisplatin-induced hearing loss (hearing) | effectiveness in ameliorating neuropathic and ototoxic effects of cisplatin [1]
1 | N.N.[Cl][Pt][Cl] [cisplatin] | 9-90% | 
2 | NCCCNCCSP(=O)(O)O [amifostine] |  | does not appear to be effective
